Laboratory results reported in US7939541B2, “Intermediates and a process employing the intermediates for the preparation of (3-trifluoromethylsulfonyl)-N-[4-methyl-3-(4-pyridin-3yl-pyrimidin-2ylamino)-phenyl]-benzamide” (Natco Pharma Limited, priority 2004, dated 2011).

What was measured:
ZR71 breast cancer cells = test: In vitro angiogenic assay, ZR-71 conditioned media on human dermal endothelial cells; assay type: cell-based; details: ZR-71 cells, radiation status not specified
Protocol: (§1) The in vitro angiogenesis of 4910, 5310 and U87 glioma cells and MDAMB231 and ZR71 breast cancer cells in the presence of specified concentrations of compounds were determined as follows, cells (2×10^4/well) were seeded in 8-well chamber slides and were treated with various concentrations of test compounds. After a 24 h incubation period, the conditioned media was removed and added to a 4×10^4 human dermal endothelial cell (monolayer in 8-well chamber slides) and the human dermal endothelial cells were allowed to grow for 72 h. Cells were then fixed in 3.7% formaldehyde and stained with H&E and photographed.

[1] = system: AKT, ERK and Pi3k in 5310 glioma cells; test: Western blot analysis, 5310; assay type: cell-based; details: for PI3k levels: 24 h
Protocol: (§2) Western blot analysis of 4910, 5310 and U87 glioma cells and MDAMB231 and ZR71 breast cancer cells in the presence of specified concentrations of compounds were assessed as per standard protocols. Cells were treated with AN019, AN024 or Temozolomide at the specified concentrations. 24 h after treatment, cells were collected and cell lysates extracted. Equal quantities of proteins were fractionated by SDS-PAGE. The fractionated proteins were blotted on to nylon membranes and immunoprobed for AKT, ERK and Pi3k. Breast cancer cell protein isolates were additionally immunoprobed for EGFR, ErbB1, ErbB2 and ErbB3.

[2] = system: Baf3 murine leukemia cells M351T; test: Blast cell count in nude mice implanted with Baf3 M351T cells; assay type: in vivo; details: Baf3M351T; Imatinib 10 mg/kg, AN019 20 mg/kg, AN024 20 mg/kg, oral gavage or ip from day 15; day 42
Text: (§3) Blood smears were obtained via the tail vein or via the femoral vein every 6th day and blast cells counted and graphically represented.
(§4) Abdominal swelling and decrease in activity was monitored daily, blood smear taken via the tail vein or the femoral vein every 6th day and H&E stained as per standard protocols. 42 days after implantation, mice were sacrificed and spleens harvested.
(§5) Blood from tail vein or the femoral vein was taken every 6th day from Baf3 cell implanted mice until day 42.
(§6) Nude mice were intraperitoneally implanted with Baf3 mutant cells (wt, T315I, M351T or E255K). […] Blood was drawn from the femoral vein or tail vein every 6th day and blast cell count determined and graphically represented.

[3] = system: Baf3 murine leukemia cells Wt; test: Blast cell count in nude mice implanted with Baf3 Wt cells; assay type: in vivo; details: Baf3Wt; Imatinib 10 mg/kg, AN019 20 mg/kg, AN024 20 mg/kg, oral gavage or ip from day 15; day 42
Text: as §3, §4, §5, §6

K562 = test: ED50 and therapeutic index in leukemic mice (K562); assay type: in vivo; details: po, mice
[4] = system: K562 luciferase expressing cells; test: Leukemic survival study; assay type: in vivo, nude mice
Text: K562 luciferase expressing cells were implanted intraperitoneally into nude mice; the mice were scanned using the xenogeny IVIS image station after ip injections of luciferin does determine implantations. Drug treatment was started as in previous studies day 15 after implantation. The animals were given treatment till day 42, after which drug treatment was stopped and survival of the animals determined as per the animal care regulations. […] Drug treatment was withdrawn on day 42 post implantation and survival of animals determined.

K562luc cells = test: Determination of drug temporal penetrance (Tp); assay type: in vivo, nude mice; details: daily ip from day 15 to day 35, imaged till day 45; AN019 20 mg/kg, AN024 20 mg/kg, Imatinib 10 mg/kg
Protocol: The temporal penetrance was calculated applying the following equation, […].
P=photon counts at day ‘a’, day ‘ter’, or day ‘b’ where ‘a’ is the day when drug treatment was stopped and ‘ter’ is the day when the experiment was terminated and ‘b’ is the day where P is minimum after day a but before day ‘ter’.
n=number of animals alive when P was measured.
The animals were imaged at 6 day intervals post transplantation. […] Drug treatment was stopped on day 35 and animals were imaged till day 45, and calculated as described in methods.

4910 glioma cells = test: In vitro angiogenic assay, 4910 conditioned media on human dermal endothelial cells; assay type: cell-based; details: 4910 cells
Protocol: as §1

[5] = system: MDAMB231 breast cancer cells; test: In vitro angiogenic assay, MDA-MB-231 conditioned media on human dermal endothelial cells; assay type: cell-based; details: MDA-MB-231 cells
Protocol: as §1

[6] = system: AKT, ERK and Pi3k in ZR71 breast cancer cells; test: Western blot analysis, ZR71; assay type: cell-based; details: 24 h
Protocol: as §2

[7] = system: pAKT and pERK in glioma and breast cancer cells; test: Western blot analysis of pAKT and pERK, cell line not stated; assay type: cell-based; details: for pERK levels: both with and without radiation
Protocol: as §2

[8] = system: Baf3 murine leukemia cells E255K; test: Blast cell count in nude mice implanted with Baf3 E255K cells; assay type: in vivo; details: Baf3E255K (printed E225K); Imatinib 10 mg/kg, AN019 20 mg/kg, AN024 20 mg/kg, oral gavage or ip from day 15; day 42
Text: as §3, §4, §5, §6

[9] = system: Baf3 murine leukemia cells T315I; test: Blast cell count in nude mice implanted with Baf3 T315I cells; assay type: in vivo; details: Baf3T315I; Imatinib 10 mg/kg, AN019 20 mg/kg, AN024 20 mg/kg, oral gavage or ip from day 15; day 42
Text: as §3, §4, §5, §6

[10] = system: 4910 human glioma xenograft cells; test: Glioma radiation studies, intracranial tumours; assay type: in vivo, nude mice
Protocol: Nude mice were intracranially implanted with 4910 human glioma xenograft cells (1×10^6 cells) intracranially. Ten days after implantation mice were treated with AN019, AN024 or temozolomide with or without radiation (5 Gy/week). The experiment was terminated at day 40 post implantation.

5310 glioma cells = test: In vitro angiogenic assay, 5310 conditioned media on human dermal endothelial cells; assay type: cell-based; details: 5310 cells
Protocol: as §1

In the case of `Cc1ccc(NC(=O)c2cc(C(F)(F)F)cc(C(F)(F)F)c2)cc1Nc1nccc(-c2cccnc2)n1` [AN019], the inhibition of angiogenesis (ZR71 breast cancer cells) is reported as “complete inhibition of angiogenesis”, the AKT expression levels ([1]; 5310, 24 h) is reported as “decrease in AKT expression levels” and the PI3k levels ([1]; 5310, after radiation treatment) is reported as “reappeared after radiation treatment”. The PI3k levels ([1]; 5310, without radiation) was “almost undetectable”, the “blast cell count in blood smears” value [2] was “significant decrease in blast cell count” and the “blast cell count in blood smears” value [3] was “complete regression of leukemic blast cells”. For the same molecule, the “ED50 (po) Mice” value (K562) was 11.5 mg/kg, the “blast cell count from blood smears after withdrawal of drug treatment” value ([4]; drug treatment withdrawn on day 42 (FIG. 6C)) was “showed effectiveness after withdrawal of drug treatment” and the “animals showing no signs of leukemia / complete absence of leukemic symptoms” value ([4]; of 10 animals, treatment day 15 to day 42, then withdrawn, AN024 read on day 55) was 7 animals. The “mortality (day post implantation)” value ([4]; treatment day 15 to day 42, then withdrawn) was “did not show any mortality”, the “MTD Mice” value (Maximum Tolerated Dose) was 500 mg/kg and the “LD50 (po) Mice” value (po) was 1133 mg/kg. For the same molecule, the “temporal penetrance (Tp)” value (K562luc cells) was 2.0, the inhibition of angiogenesis (4910 glioma cells; with radiation) was “increase in angiogenic inhibition after radiation” and the inhibition of angiogenesis ([5]; with radiation) was “slight inhibition”. For the same molecule, the AKT levels ([6]; ZR71, after radiation) was “enhanced after radiation”, the PI3k levels ([6]; ZR71, with radiation) was “absent” and the AKT levels ([6]; ZR71, without radiation) was “decrease in AKT levels”. The PI3k levels ([6]; ZR71, without radiation) was “absent”, the pERK levels [7] was “reduced significantly” and the “blast cell count in blood smears” value [8] was “significant decrease in blast cell count”. The “blast cell count in blood smears” value [9] was “significant decrease in blast cell count” and the “intracranial tumours (size, appearance)” value ([10]; without radiation) was “tumours similar to AN024 treated animals”.
In the case of `Cn1nnc2c(C(N)=O)ncn2c1=O` [Temozolomide, reference compound], the inhibition of angiogenesis (ZR71 breast cancer cells) is reported as “complete inhibition of angiogenesis”, the inhibition of angiogenesis (5310 glioma cells; after radiation treatment) is reported as “angiogenesis was promoted” and the inhibition of angiogenesis (5310 glioma cells; control conditions (without radiation)) is reported as “inhibition of angiogenesis was seen”. The inhibition of angiogenesis (4910 glioma cells; with radiation) was “significant inhibition of angiogenesis”, the inhibition of angiogenesis (4910 glioma cells; without radiation) was “significant inhibition of angiogenesis” and the inhibition of angiogenesis ([5]; control condition (without radiation)) was “only a slight inhibition”. For the same molecule, the inhibition of angiogenesis ([5]; with radiation) was “increase in inhibition after radiation”, the pERK levels [7] was “did not show any significant change” and the pAKT levels ([7]; with or without radiation) was “did not show any significant change”. The “intracranial tumours (size, appearance)” value ([10]; with radiation (5 Gy/week)) was “further regression in tumor size” and the “intracranial tumours (size, appearance)” value ([10]; without radiation) was “reduction in intracranial tumours”.
